Test results taken from patent US12454531B2, “Substituted piperazine derivatives useful as T cell activators” (BRISTOL-MYERS SQUIBB COMPANY, priority 2019, dated 2025).
Like-named read-outs stand apart in the source and are kept apart here.

Assays:
DGKζ = DGKζ (Homo sapiens (Human), UniProt Q13574); assay: Assay 1 or 2: In Vitro DGK Inhibition Assays (DGKζ LIPGLO, extruded liposome); assay type: biochemical; conditions: extruded liposome substrate, 150 μM ATP
Human whole blood pERK = assay: Assay 11: DGK Human Whole Blood pERK Assay; assay type: cell-based; conditions: anti-CD3 stimulation, pERK positive within CD8 positive population, starting concentration 20 μM, read-out: DGK HWB pERK IC50
Experimental: Assay 11: DGK Human Whole Blood pERK Assay
Human whole blood ERK phosphorylation assay was performed with human venous whole blood obtained from healthy donors (drawn with Heparin as anti-coagulant). Serial dilutions of compounds (11 points, 3-fold) in DMSO were added to 384 well plates at 20 nL/well using an ECHO 550 acoustic dispenser (Labcyte) to achieve final starting concentration of 20 μM in assay. Heparinized human whole blood was added to the compound plate at 9 μL per well and incubated for one hour at 37° C. in a humidified 95%, air/5% CO2 incubator. After one hour of compound incubation, 1 μL of human anti-CD3 antibody (in-house) in the presence of cross-linking antibody goat anti-mouse IgG (4 μg/mL) was added to the well at 1 μg/mL final concentration for stimulation of pathway and additionally incubated for 15 minutes at 37° C. Stimulation was stopped by adding 90 μL Fix/Lyse buffer (BD 558049). Cells were washed and stained with anti-CD8 PE (BD 555635) antibodies for 60 minutes at room temperature, washed again, and permeabilized on ice using Perm III buffer (BD 558050) for 30 minutes. Cells were then stained with an Alexa Fluor® 647 anti-ERK1/2 Phospho (Thr202/Tyr204) Antibody (Bioleged 675504) for 60 minutes at 1:50 dilution. Samples were washed and resuspended in dPBS containing 1% BSA (dPBS, Gibco 14190136; BSA, Sigma-Aldrich A9205). Samples analyzed using the Intellicyt® iQue Screener PLUS. The pERK activation was quantitated by the percentage of pERK positive population within CD8 positive population.

Chain of DGKζ (Q13574 other isoform, or with tags, fused parts or gaps): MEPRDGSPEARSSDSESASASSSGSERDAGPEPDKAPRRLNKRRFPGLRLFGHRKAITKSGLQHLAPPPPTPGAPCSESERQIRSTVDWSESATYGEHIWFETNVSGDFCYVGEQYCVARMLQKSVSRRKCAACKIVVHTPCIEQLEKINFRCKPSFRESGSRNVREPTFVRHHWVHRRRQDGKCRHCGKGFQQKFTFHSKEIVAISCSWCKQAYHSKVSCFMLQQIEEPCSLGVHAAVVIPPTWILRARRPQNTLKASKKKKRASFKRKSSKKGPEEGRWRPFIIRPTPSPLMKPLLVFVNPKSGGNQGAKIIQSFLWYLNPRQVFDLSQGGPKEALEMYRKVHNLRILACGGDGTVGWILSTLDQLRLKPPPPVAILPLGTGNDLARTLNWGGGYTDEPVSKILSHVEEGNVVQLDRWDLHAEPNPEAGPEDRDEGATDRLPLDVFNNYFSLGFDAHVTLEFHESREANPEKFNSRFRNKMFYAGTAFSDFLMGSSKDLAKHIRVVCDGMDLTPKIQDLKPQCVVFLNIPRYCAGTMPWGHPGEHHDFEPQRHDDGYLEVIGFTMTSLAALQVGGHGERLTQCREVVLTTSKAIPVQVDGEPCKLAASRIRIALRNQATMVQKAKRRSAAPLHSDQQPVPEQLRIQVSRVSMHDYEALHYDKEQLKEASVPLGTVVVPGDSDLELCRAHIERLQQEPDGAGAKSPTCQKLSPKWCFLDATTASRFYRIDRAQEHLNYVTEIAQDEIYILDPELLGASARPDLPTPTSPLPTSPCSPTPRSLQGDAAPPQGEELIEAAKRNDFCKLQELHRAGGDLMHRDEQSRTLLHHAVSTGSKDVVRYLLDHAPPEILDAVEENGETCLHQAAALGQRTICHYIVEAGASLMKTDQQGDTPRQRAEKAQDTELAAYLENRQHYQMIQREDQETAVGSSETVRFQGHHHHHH

IC50 (DGKζ)	IC50 (Human whole blood pERK; Homo sapiens, CD8 positive)	IC50 (Human whole blood pERK)	Structure (SMILES)
3290 nM	5.53 µM		CC[C@H]1CN(C(C(=O)N2CCOCC2)c2ccc(C(F)(F)F)cc2)[C@H](CC)CN1c1nc(=O)n(C)c2ccc(C#N)nc12 (single isomer, unassigned) [Example 53]
580 nM		3.51 µM	CC[C@H]1CN(C(C(=O)N2CCOCC2)c2ccc(C(F)(F)F)cc2)[C@H](CC)CN1c1nc(=O)n(C)c2ccc(C#N)nc12 (single isomer, unassigned) [Example 54]
100 nM	0.3 µM		CC[C@H]1CN(C(C(=O)NCCOC)c2ccc(C(F)(F)F)cc2)[C@H](CC)CN1c1nc(=O)n(C)c2ccc(C#N)nc12 (single isomer, unassigned) [Example 56]
